Our source for the Ki values is ChEMBL document CHEMBL1268881, “Peripheral but crucial: a hydrophobic pocket (Tyr(706), Leu(337), and Met(336)) for potent and selective inhibition of neuronal nitric oxide synthase” (Bioorg Med Chem Lett, 2010).

One assay addresses T1, Nitric oxide synthase 3 (Bos taurus, UniProt P29473).
T1 sequence (P29473 whole entry): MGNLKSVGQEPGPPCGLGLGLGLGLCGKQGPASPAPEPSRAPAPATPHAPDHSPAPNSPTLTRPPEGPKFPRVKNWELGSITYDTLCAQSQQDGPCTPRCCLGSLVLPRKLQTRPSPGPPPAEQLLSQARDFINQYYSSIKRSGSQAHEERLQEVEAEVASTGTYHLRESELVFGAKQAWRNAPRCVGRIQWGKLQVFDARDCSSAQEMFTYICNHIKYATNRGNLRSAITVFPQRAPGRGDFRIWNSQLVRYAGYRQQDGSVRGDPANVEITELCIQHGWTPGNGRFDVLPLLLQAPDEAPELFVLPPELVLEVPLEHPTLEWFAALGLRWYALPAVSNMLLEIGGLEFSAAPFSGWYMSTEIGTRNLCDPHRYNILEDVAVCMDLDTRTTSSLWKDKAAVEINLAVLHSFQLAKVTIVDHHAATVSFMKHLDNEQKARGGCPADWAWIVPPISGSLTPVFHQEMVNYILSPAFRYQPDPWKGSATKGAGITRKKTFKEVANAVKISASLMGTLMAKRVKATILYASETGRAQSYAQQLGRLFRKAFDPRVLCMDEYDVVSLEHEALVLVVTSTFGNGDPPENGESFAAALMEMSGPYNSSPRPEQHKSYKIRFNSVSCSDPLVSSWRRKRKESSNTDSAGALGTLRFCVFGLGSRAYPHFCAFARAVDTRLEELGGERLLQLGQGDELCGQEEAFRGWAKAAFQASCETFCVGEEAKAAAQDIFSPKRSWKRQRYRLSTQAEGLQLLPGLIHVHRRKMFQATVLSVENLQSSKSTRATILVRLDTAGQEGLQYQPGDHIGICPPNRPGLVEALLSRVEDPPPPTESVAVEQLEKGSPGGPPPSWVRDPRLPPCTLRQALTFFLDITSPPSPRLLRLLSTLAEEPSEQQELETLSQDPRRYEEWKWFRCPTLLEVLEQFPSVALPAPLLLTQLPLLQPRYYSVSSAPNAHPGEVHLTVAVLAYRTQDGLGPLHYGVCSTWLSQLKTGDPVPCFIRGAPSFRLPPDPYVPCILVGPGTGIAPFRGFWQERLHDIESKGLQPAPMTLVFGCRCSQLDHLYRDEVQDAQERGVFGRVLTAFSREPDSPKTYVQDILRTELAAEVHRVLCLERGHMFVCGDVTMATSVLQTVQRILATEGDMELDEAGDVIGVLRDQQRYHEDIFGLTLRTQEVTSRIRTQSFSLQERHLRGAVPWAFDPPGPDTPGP

The target of assay [1] is Nitric oxide synthase 1 (Rattus norvegicus, UniProt P29476). Put plainly: Inhibition of rat nNOS expressed in Escherichia coli assessed as inhibition of nitric oxide formation by hemoglobin capture assay.
The target in assay [2] is Nitric oxide synthase 1 (Homo sapiens, UniProt P29475). Put plainly: Inhibition of human nNOS expressed in Escherichia coli assessed as inhibition of nitric oxide formation by hemoglobin capture assay.
Assay [3] has as its target T2, Nitric oxide synthase, inducible (Mus musculus, UniProt P29477).
T2 sequence (P29477 whole entry): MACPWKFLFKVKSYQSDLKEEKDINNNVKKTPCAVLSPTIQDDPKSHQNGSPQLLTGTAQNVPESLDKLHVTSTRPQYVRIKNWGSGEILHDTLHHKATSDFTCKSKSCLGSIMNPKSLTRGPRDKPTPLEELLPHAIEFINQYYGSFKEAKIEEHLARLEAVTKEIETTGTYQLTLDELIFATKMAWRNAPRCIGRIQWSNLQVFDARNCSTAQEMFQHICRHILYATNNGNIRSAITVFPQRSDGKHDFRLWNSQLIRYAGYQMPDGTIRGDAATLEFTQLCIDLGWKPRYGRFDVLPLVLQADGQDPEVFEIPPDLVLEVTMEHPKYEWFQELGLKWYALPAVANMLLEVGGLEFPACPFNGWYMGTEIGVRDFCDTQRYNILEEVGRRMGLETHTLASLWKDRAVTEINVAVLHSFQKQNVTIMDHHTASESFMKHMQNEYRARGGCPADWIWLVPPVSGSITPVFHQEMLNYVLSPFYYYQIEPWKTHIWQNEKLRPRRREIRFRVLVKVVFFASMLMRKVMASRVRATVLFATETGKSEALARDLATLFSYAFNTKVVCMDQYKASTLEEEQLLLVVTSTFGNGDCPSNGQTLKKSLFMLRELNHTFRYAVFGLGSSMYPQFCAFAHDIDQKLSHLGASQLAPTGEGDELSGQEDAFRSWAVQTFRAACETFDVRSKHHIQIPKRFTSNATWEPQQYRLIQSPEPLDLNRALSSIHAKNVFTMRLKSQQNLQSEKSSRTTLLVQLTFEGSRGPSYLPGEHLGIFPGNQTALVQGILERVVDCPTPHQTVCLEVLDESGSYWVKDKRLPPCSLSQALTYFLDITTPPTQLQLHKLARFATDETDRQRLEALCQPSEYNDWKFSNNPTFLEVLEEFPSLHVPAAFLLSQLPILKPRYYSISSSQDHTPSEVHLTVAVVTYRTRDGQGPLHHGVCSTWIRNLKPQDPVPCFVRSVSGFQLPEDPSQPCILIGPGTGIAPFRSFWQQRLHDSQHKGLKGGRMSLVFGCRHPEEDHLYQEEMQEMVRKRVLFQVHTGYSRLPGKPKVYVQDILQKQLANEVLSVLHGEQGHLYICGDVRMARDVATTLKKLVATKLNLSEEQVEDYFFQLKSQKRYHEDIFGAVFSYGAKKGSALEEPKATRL
Kind of assay: Inhibition of mouse iNOS expressed in Escherichia coli assessed as inhibition of nitric oxide formation by hemoglobin capture assay.

Chain of Nitric oxide synthase 1 (Homo sapiens, UniProt P29475) (P29475 whole entry): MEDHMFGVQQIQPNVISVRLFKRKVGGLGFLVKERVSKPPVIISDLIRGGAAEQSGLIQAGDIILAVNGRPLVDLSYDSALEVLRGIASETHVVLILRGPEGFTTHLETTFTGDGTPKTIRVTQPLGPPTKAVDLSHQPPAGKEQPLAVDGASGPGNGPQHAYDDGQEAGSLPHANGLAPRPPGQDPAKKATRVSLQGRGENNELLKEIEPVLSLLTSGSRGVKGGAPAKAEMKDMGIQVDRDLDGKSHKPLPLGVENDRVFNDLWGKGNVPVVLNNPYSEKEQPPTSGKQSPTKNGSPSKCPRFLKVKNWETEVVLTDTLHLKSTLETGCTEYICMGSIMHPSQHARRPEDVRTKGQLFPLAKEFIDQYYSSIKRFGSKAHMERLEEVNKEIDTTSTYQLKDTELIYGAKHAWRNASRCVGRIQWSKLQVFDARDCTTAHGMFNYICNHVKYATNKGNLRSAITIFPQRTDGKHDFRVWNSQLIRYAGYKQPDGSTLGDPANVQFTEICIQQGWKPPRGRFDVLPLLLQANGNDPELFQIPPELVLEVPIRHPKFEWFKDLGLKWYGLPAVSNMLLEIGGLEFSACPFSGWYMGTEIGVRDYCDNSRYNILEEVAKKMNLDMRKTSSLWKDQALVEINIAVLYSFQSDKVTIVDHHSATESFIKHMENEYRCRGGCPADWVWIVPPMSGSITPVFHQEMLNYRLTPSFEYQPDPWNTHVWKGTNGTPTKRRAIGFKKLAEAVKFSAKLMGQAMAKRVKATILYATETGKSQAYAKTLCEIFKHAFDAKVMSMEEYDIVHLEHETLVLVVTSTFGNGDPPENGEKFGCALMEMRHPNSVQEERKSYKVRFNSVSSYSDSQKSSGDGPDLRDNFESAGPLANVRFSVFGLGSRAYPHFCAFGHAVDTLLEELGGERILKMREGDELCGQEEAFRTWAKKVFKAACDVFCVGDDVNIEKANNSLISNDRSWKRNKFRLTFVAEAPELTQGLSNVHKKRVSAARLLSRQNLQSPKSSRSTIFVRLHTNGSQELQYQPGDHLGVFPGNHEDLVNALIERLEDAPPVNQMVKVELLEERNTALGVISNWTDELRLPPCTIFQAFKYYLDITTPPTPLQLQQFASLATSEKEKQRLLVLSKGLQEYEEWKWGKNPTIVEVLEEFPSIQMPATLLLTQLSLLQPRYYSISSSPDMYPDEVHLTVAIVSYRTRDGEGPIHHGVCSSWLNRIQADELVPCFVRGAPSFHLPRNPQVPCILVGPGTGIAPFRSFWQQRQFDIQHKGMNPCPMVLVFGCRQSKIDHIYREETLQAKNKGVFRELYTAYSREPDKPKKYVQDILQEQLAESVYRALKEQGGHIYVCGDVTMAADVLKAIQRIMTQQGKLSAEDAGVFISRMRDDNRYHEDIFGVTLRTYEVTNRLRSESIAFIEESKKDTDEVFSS
Chain of Nitric oxide synthase 1 (Rattus norvegicus, UniProt P29476) (P29476 whole entry): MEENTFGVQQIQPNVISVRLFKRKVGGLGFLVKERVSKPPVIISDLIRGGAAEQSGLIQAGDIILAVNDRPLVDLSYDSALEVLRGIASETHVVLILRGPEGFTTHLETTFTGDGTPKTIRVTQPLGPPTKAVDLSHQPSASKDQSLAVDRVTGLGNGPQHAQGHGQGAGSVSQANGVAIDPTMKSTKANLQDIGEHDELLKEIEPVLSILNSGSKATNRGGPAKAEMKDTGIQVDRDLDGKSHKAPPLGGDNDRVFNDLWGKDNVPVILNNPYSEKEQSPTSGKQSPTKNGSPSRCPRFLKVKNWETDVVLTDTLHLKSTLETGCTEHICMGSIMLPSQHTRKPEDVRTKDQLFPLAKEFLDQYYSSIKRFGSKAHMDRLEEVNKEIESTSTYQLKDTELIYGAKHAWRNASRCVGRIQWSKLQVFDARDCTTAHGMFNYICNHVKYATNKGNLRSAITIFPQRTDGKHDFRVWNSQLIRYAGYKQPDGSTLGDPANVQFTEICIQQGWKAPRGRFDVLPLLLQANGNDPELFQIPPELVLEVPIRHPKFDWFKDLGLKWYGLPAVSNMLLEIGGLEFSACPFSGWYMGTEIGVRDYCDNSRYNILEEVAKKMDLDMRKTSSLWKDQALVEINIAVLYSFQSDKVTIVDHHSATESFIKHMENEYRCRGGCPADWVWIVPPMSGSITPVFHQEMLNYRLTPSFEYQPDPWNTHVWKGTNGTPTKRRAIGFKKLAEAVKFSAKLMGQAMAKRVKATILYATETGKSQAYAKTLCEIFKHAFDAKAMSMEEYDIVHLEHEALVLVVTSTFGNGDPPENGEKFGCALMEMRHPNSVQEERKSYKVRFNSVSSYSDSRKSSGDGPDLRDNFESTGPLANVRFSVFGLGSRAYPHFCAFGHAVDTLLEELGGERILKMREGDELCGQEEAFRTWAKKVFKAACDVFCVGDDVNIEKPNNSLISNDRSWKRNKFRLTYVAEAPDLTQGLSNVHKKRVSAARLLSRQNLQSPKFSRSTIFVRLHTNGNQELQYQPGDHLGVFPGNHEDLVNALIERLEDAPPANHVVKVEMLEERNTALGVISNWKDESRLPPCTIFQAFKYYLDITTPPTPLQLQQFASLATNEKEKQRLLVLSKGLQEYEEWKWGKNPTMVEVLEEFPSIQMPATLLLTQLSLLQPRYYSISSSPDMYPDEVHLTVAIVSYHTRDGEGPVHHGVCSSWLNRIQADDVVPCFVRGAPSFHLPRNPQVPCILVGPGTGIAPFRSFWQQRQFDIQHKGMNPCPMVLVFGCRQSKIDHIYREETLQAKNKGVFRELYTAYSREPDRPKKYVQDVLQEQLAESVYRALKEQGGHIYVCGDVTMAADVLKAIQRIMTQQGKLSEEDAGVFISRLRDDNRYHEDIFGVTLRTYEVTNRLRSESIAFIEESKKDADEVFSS
Description for Nitric oxide synthase 3: Inhibition of bovine eNOS expressed in Escherichia coli assessed as inhibition of nitric oxide formation by hemoglobin capture assay

With `Nc1cccc(C[C@H]2CNC[C@H]2OCCNCCc2cccc(F)c2)n1`, the inhibition constant Ki at Nitric oxide synthase 3 is 59 µM; at Nitric oxide synthase 1 [1] it was 220 nM; at Nitric oxide synthase 1 [2] it was 1800 nM; in assay [3] it was 13.2 µM.

Turning to `Nc1cccc(C[C@@H]2CNC[C@@H]2OCCNCCc2cccc(F)c2)n1`, the Ki on Nitric oxide synthase 3 was found to be 58 µM; at Nitric oxide synthase 1 [1], 50 nM; at Nitric oxide synthase 1 [2] it was 290 nM; in assay [3], 10 µM.

Regarding `Cc1cc(N)nc(C[C@@H]2CNC[C@@H]2OCCNCCc2cccc(F)c2)c1`, the inhibitory constant (Ki) at Nitric oxide synthase 1 [2] is 50 nM.

Turning to `NC1=NC(C[C@@H]2CNC[C@@H]2OCCNCCc2cccc(F)c2)CCC1` (stereo partly drawn), the Ki on Nitric oxide synthase 3 is 58 µM; on Nitric oxide synthase 1 [1], 110 nM; on Nitric oxide synthase 1 [2], 490 nM; in assay [3], 21.8 µM.

Usually Ki stands for a measure of affinity in units of concentration, obtained from inhibition or displacement.
